“And” between values parts separate entries of the source, which are not always exact repeats. Equal values may be shown once. The source made the active and inactive calls.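 How the source made its calls: active means compounds giving half or more protection of infected cells from virus-caused growth loss, again on retest; inactive means the rest.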
Test system: CEM cells HIV-1 protection, formazan growth assay
Assay: NCI AIDS Antiviral Assay
Details: for IC50: measured here: growth of uninfected CEM cells
Procedure, shortened: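 Category rules: moderately active means at least 50% protection on retest, and confirmed active means 100% protection reproducibly. The underlying data came from a formazan growth assay in HIV-1-infected CEM cells.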

Structure (SMILES) | EC50 | IC50 | outcome
COC(=O)[C@@H]1[C@H](O)[C@H](C)[C@H](O)[C@@](C)(O)/C=C\C=C(C)C(=O)Nc2c(C)c(OC(C)=O)c3c(c2O)C(=O)C(C)=C2OCOC(=C23)C(C)=C[C@@](C)(O)[C@H](O)[C@@H](C)[C@H]1OC(C)=O | > 302 µM | 17 µM and > 43.7 µM | 
CC12CCCN1C(=O)C1(C)CCCN1C2=O (stereo unspecified) | > 200 µM | > 200 µM | 
CC(C)C(C(=O)O)C(=O)O | > 200 µM | > 200 µM | 
COC(=O)C1=C(C(=O)OC)C2(OC(C)=O)c3ccccc3-c3ccccc3C12 (stereo unspecified) | > 2.51 µM | 1.35 µM | 
Cc1ccccc1NC(=O)C(=O)c1c(O)c2ccc(O)cc2oc1=O | > 741 µM | 331 µM | 
COc1c(O)cc2oc3cc(O)c(CC=C(C)C)c(O)c3c(=O)c2c1CC=C(C)C | > 229 µM | 16.6 µM and 10.7 µM | 
COc1ccc(C(c2ccc3cccnc3c2O)c2oc(CO)cc(=O)c2O)cc1 (stereo unspecified) |  |  | inactive
COc1cccc(CCNc2c(C#N)c3n(c4ccccc4[n+]3C)c3ncccc23)c1 | > 200 µM | 1 µM | 
CN(C)c1cccc2c1C(=O)C=CC21c2ccc(N(C)C)c3c(N(C)C)ccc(c23)C(c2ccccc2)C1c1ccccc1 (stereo unspecified) | > 100 µM | 7.08 µM | 
N#CCC(=O)Nn1c(CC#N)nnc1Cc1ccccc1 |  |  | inactive
NC(=O)NC1C(C(N)=O)N(Cc2ccccc2)C(=O)N1Cc1ccccc1 (stereo unspecified) | > 97.7 µM | > 97.7 µM | 
COc1cc(C(C)=O)cc(C(=O)N(C(C)C)C(C)C)c1[Si](C)(C)C | > 100 µM | > 100 µM | 
CCCCCCC/C=N/[N-]C(=O)c1ccncc1.CCCCCCC/C=N\[N-]C(=O)c1ccncc1.[Ni+2] | > 100 µM | 64.6 µM | 
CC1(C)CCc2ccc(OCCC#N)cc2O1 |  |  | inactive
Cc1cc2cc3c(C)cc(=O)oc3c(C)c2o1 | > 56.2 µM | > 56.2 µM | 
O=C(/C=C/c1ccsc1)c1ccsc1 | > 200 µM | 3.39 µM | 
c1ccc2c(N3CC3)nncc2c1 | > 200 µM | > 200 µM | 
c1ccc([P+](c2ccccc2)(c2ccccc2)c2ccc([P+](c3ccccc3)(c3ccccc3)c3ccccc3)cc2)cc1 | > 74.1 µM | 30.9 µM | 
O=Cc1ccc(C(F)(F)F)cc1.[C-]#[O+].[C-]#[O+].[C-]#[O+].[Cr] | > 20 µM | 3.98 µM | 
N#CC(C#N)=Cc1ccccc1F | > 102 µM | 17.4 µM | 
c1cc2c(cc1C1OCC3C(c4ccc5c(c4)OCO5)OCC13)OCO2 (stereo unspecified) | > 100 µM | 58.9 µM | 
CN(C)CCCNCc1cc(N(C)C)cc(CNCCCN(C)C)n1 | > 200 µM | > 200 µM | 

Structure (SMILES) | EC50 | IC50 | outcome
COc1ccc(/C=C/C(=O)OCCc2ccccc2)cc1O | > 8.32 µM | 4.47 µM | 
O=C(Nc1cc([N+](=O)[O-])cc([N+](=O)[O-])c1)OC1C2CCC1C1OC1C2 (stereo unspecified) | > 14.8 µM | > 14.8 µM | 
CS(=O)(=O)Nc1c(-c2ccccc2)oc2ccccc2c1=O | > 200 µM | > 200 µM | 
Cc1occc1C(=S)Nc1ccc(Cl)c(C(=O)OC2CCCC2)c1 | 0.00295 µM | 16.6 µM | 
O=C1CC(Cc2n[nH]c3c2CCCC3)CC(=O)N1 | > 200 µM | > 200 µM | 
CN(C)CCN1C(=O)c2ccccc2N(C)c2ccccc21 | > 200 µM | > 200 µM | 
CCN(CC)c1ccc(NC(=S)NN(C)C)cc1 | > 200 µM | 52.5 µM | 
CC(C)(C)OC(=O)NC1CCCC1C(O)(C1=CCCC1)C1=CCCC1 (stereo unspecified) | > 200 µM | 120 µM | 
c1ccc(-c2nn3c(-c4ccccc4)nnc3o2)cc1 | > 200 µM | 40.7 µM | 
COC(=O)C1(C(=O)OC)C2=Nc3ccccc3[C@@]23CCN(Cc2ccccc2)C3C[C@H]1c1ccoc1 (stereo partly specified) | > 36.3 µM | 21.4 µM | 
CC1(C)COC(c2cccc3c2C2C=CC3O2)=N1 (stereo unspecified) | > 200 µM | > 200 µM | 
Cc1c(C(=O)NNc2ccccc2)n2c(=S)[nH]nc2c2ccccc12 | > 200 µM | 93.3 µM | 
COc1ccccc1-c1n[nH]c(-c2ccccc2O)n1 | > 200 µM | > 200 µM | 
Nc1ccc([As](=O)(O)O)cc1C(=O)O | > 200 µM | > 200 µM | 
Cn1c(=O)c(C(c2ccccc2)c2c(O)c3ccccc3n(C)c2=O)c(O)c2ccccc21 | > 22.9 µM | > 22.9 µM | 
O=C1c2cc(Cc3ccccc3)c(=O)c(Cc3ccccc3)cc2C(=O)c2cc(Cc3ccccc3)c(=O)c(Cc3ccccc3)cc21 | > 200 µM | > 200 µM | 
Cc1cc(=O)c(C#N)c2c(C#N)c(N)[nH]n12 | > 200 µM | > 200 µM | 
Nc1[nH]c(=S)c2c(N)n[nH]c2c1C(=O)Nc1ccccc1 | > 200 µM | 91.2 µM | 
CNC(=O)C(C(=O)NC)n1cnc(C(=O)OC)c1O | > 200 µM | > 200 µM | 
NNC(=O)c1ccccc1SSc1ccccc1C(=O)NN | 0.537 µM | 3.55 µM | 
OC1NC2CC3NC(O)C(O)NC3CC2NC1O (stereo unspecified) | > 100 µM | > 100 µM | 
Cc1cc2c(c(C=Nc3ccccc3O)c1)OC1(C=C2)Oc2ccccc2C(=O)N1C (stereo unspecified) | > 200 µM | 25.1 µM | 

Structure (SMILES) | EC50 | IC50 | outcome
N#CCc1ccccc1C(=O)O | > 1550 µM | 891 µM | 
c1ccc(NC[Si]23OCCN(CCO2)CCO3)cc1 |  |  | inactive
O=C1NC(N2CCCC(CO)C2)=N/C1=C\c1ccc(Cl)cc1 (stereo unspecified) | > 200 µM | 115 µM | 
O=C1NC(=O)C(C(=O)C(=O)Nc2ccc(Br)cc2)C(=O)N1 | > 191 µM | > 191 µM | 
C#CCOCn1cnc2c(N)ncnc21 | > 1230 µM | 692 µM | 
CC[CH2][Sn]([CH2]CC)([O]C(=O)c1cccnc1SC)[O][Sn]([CH2]CC)([CH2]CC)[O]C(=O)c1cccnc1SC | > 24.5 µM | 5.62 µM | 
O=c1[nH]cnc2c1nnn2CCCCCCCCCCCCn1nnc2c(=O)[nH]cnc21 | > 200 µM | 24 µM | 
CN1C=C/C(=C/[N+](=O)[O-])N(C)C1=O | > 200 µM | > 200 µM | 
COC(=O)N(C[C@@H]1C=CCCC1)c1ccccc1I | > 14.1 µM | > 14.1 µM | 
Nc1ccc(S(=O)(=O)C(=O)O)cc1 | > 1230 µM | > 1230 µM | 
Nc1nc(N)c(-c2ccc(Cl)c(Cl)c2)c(C[P+](c2ccccc2)(c2ccccc2)c2ccccc2)n1 | > 200 µM | 1.05 µM | 
NC(=O)C(NCc1ccccc1)c1ccccc1 (stereo unspecified) | > 200 µM | > 200 µM | 
C#CC1OC(C)(C)OC1C1OC(C)(C)OCC1O (stereo unspecified) |  |  | inactive
CCCCC1SC2=NCCN2C1(O)c1ccc(Cl)cc1 (stereo unspecified) | > 200 µM | 102 µM | 
COC1/C=C/OC2(C)Oc3c(C)c(O)c4c(O)c(c(C=NN5CCCCCCCCCCCCCCC5)c(O)c4c3C2=O)NC(=O)/C(C)=C/C=C/C(C)C(O)C(C)C(O)C(C)C(OC(C)=O)C1C (stereo unspecified) | > 200 µM | 3.98 µM | 
CC1=C2OCS(=O)C2C2C(=O)N(c3ccccc3)C(=O)C2C1 (stereo unspecified) | > 794 µM | 501 µM | 
COc1ccc(/C=C2\S/C(=N/Nc3nc(-c4ccccc4)cs3)NC2=O)cc1OC | > 200 µM | 31.6 µM | 
COC(=O)C(=O)/C=C(\O)c1ccc(Cl)cc1 | > 200 µM | > 200 µM | 
NC(=S)N/N=C(\C(=O)Nc1cccc([N+](=O)[O-])c1)c1nc2ccc([N+](=O)[O-])cc2[nH]c1=O | > 288 µM | 95.5 µM | 
O=C(N[C@H]1CCC[C@H]1C(=O)Nc1ccc(C(F)(F)F)cc1)OCc1ccccc1 | > 200 µM | > 200 µM | 
CN(C)C=C1C=CC=C1 | 166 µM | > 200 µM | 
C[C@]12CCC[C@H](OC=O)C1(O)C[C@H](C(=O)O)CC2 (stereo partly specified) |  |  | inactive

Structure (SMILES) | EC50 | IC50 | outcome
COc1ccc2nc(-c3cccs3)cc(C(O)CN3CCSCC3)c2c1 (stereo unspecified) |  |  | inactive
CCC(=O)CCCC=C(c1cc(Cl)c(OC)c(CO)c1)c1cc(Cl)c(OC)c(CO)c1 | > 200 µM | 14.1 µM | 
CC(=O)OCC1OC(Sc2nc(-c3ccc(C)cc3)c(C#N)c(=O)n2C2OC(COC(C)=O)C(OC(C)=O)C(OC(C)=O)C2OC(C)=O)C(OC(C)=O)C(OC(C)=O)C1OC(C)=O (stereo unspecified) | > 100 µM and 69.2 µM | > 100 µM | 
O=C1/C(=C/c2cccc([N+](=O)[O-])c2)Sc2scc(-c3ccc([N+](=O)[O-])cc3)[n+]21 | > 200 µM | 38 µM | 
O=C(O)CCNS(=O)(=O)c1ccc2ccccc2c1 |  |  | inactive
N#C/C(=C\c1ccccc1)c1nc(-c2cc3ccccc3oc2=O)cs1 | > 151 µM | > 151 µM | 
COc1ccc(N2C(=O)C3CSCN3C2=O)cc1 (stereo unspecified) | > 200 µM | > 200 µM | 
CC[C@H](O)[C@H](C)C=C1SCCCS1 | > 200 µM | > 200 µM | 
COC1=C(C(=O)OC(C)(C)C)C23CCCCCCCCCCC2(C(C(=O)OC(C)(C)C)=C(OC)C3C(=O)OC(C)(C)C)C1C(=O)OC(C)(C)C (stereo unspecified) | > 25.1 µM | 23.4 µM | 
Oc1c(Br)cc(Br)cc1/C=C/NC(=S)NC1CC2CC1C1C=CCC21 (stereo unspecified) | > 200 µM | 3.02 µM | 
C#CCN1C(=O)NC(c2ccccc2)(c2ccccc2)C1=O.[C-]#[O+].[C-]#[O+].[C-]#[O+].[C-]#[O+].[C-]#[O+].[C-]#[O+].[Co].[Co] | > 200 µM | 8.91 µM | 
CCOC(=O)C1C(c2ccc(O)c(OC)c2)c2c([nH][nH]c2=O)CC1(C)O (stereo unspecified) | > 200 µM | > 200 µM | 
Cc1cn(CC2OCC(CO)O2)c(=O)[nH]c1=O (stereo unspecified) | > 1290 µM | 1100 µM | 
O=C(Nc1ccc(O)c(C(=O)O)c1)c1ccccc1 | > 200 µM | > 200 µM | 
CC(=O)NC1C(OCC(=O)N2CCCC2C(=O)NC(CCC(=O)NCCCCCNc2ccc([N+](=O)[O-])c3[nH]c4ccccc4c(=O)c23)C(N)=O)C(O)C(CO)OC1(C)OCc1ccccc1 (stereo unspecified) | > 50.1 µM | 1.02 µM | 
CC(C)(C)C1CC[C@H](O)[C@H]([C@H](O)CC2CC(=O)N(c3ccccc3)C(=O)C2)C1 (stereo partly specified) | > 200 µM | > 200 µM | 
Cc1c2ccncc2c(C)c2c1[nH]c1ccc(F)cc12 | > 200 µM | 0.437 µM | 
O=C1C[C@@H]2C(COC(=O)c3ccccc3)N(OCc3ccccc3)C[C@@H]2O1 (stereo partly specified) | > 97.7 µM | > 97.7 µM | 
Cc1cn(C2CC(/[N+]([O-])=N\Nc3ccc([N+](=O)[O-])cc3)C(CO)O2)c(=O)[nH]c1=O (stereo unspecified) | > 200 µM |  | 

— PubChem BioAssay AID179 (DTP/NCI, 2004)
